{"source": "patent US20260083742A1", "about": "“HOMOLOGOUS RECOMBINATION REPAIR DEFICIENCY (HRD) AS A PREDICTIVE BIOMARKER FOR TREATING CANCER WITH WEE1 INHIBITORS” (Zeno Management, Inc., priority 2023, published 2026)", "key": {"[1]": {"test_system": "patient-derived ovarian xenograft (PDX) models (OVA2-BUR, CTG-0703, CTG-2213)", "assay": "Anti-tumor efficacy in ovarian PDX models", "type": "in vivo", "conditions": "BRCA1 pathogenic mutant ovarian PDX vs BRCA1 WT / benign mutant; azenosertib 60 mg/kg, niraparib 35 mg/kg", "experimental": "The OVA2-BUR model has an HRD negative/BRCA1 WT phenotype. Tumor growth inhibition was also measured using BRCA1^Glu1607Ter (pathogenic) mutant and BRCA1^Pro1099Leu (Benign) mutant PDX models."}, "[2]": {"test_system": "HGSOC with HRD+ status (BRCA1m)", "assay": "Human subject with HRD+ platinum-resistant, PARP inhibitor-resistant ovarian cancer treated with azenosertib", "type": "in vivo", "conditions": "one subject", "experimental": "A subject with HGSOC selected to have HRD+ status (e.g., BRCA1m) confirmed by qualitative next-generation sequencing based in vitro diagnostic test (FoundationOne®CDx) was administered azenosertib in accordance with an intermittent dosing schedule of at least 400 mg azenosertib once a day for five consecutive days, followed by two off days. The subject received azenosertib for five months. The subject is a person who received 7 prior lines of therapy: (1) carboplatin/paclitaxel/bevacizumab/olaparib (PD); (2) Pembrolizumab (PD); (3) NaPi2b targeting-ADC (XMT-1536) (PD); (4) carboplatin/gemcitabine/bevacizumab (PD); (5) Pegylated doxorubicin (PD); (6) Topotecan (PD); (7) PABP-1 RNP (ATRC-101) (PD)."}, "[3]": {"assay": "Body weight loss and clinical observations in ovarian PDX study", "type": "in vivo", "description": "Relative Body Weight (RBW), individual body weight and mean body weight loss percent were calculated for each measurement by dividing the body weight by the body weight at the start of treatment as described in Example 3."}, "[4]": {"test_system": "HRD+ cells UWB1289, HCC1937, COV362, HCC1569, HCC1395", "assay": "In vitro cell viability (CellTiter-Glo) in a panel of HRD+ cells", "type": "cell-based", "conditions": "HRD+ cells both PARP inhibitor-sensitive and PARP inhibitor-resistant, 5 cell doublings", "experimental": "Azenosertib, olaparib and AZD5305 (PARP1-selective inhibitor) were individually tested in vitro in a panel of HRD+ cells as indicated in Table 10. Briefly, cells were seeded in their recommended media at a density of 1,000 cells per well into 96 well plates. After 24 hr, drug treatment was performed and cells were incubated in a 37° C. for 5 cell doublings. Cell viability was measured using CellTiter-Glo (CTG) (Promega) according to the manufacturer's recommendations. Percent viability was calculated as percentage of cell viability relative to DMSO-only vehicle control. Dose-response curves were fit with Graphpad Prism 9 to determine IC50 values."}, "[5]": {"test_system": "HBCx-9, HBCx-10 and HBCx-17 triple-negative breast cancer (TNBC) PDX models", "assay": "Anti-tumor efficacy in TNBC patient-derived xenograft models", "type": "in vivo, mice", "conditions": "HBCx-10 and HBCx-17 (HRD+) vs HBCx-9 (HRD-); azenosertib 60 mg/kg, niraparib 35 mg/kg", "text": "Treatments were initiated 28 days post implantation of the tumor cells. The study period ended 28 days after the start of treatment. [table]"}, "[6]": {"conditions": "azenosertib 60 mg/kg and/or niraparib 35 mg/kg p.o., (5 days on, 2 days off) × 4"}}}
{"smiles": "C=CCn1c(=O)c2cnc(Nc3ccc(N4CCN(C)CC4)cc3)nc2n1-c1ccc2c(n1)[C@@](O)(CC)CC2", "note": "[Azenosertib, azenosertib]", "values": [{"measurement": "tumor growth inhibition in HRD+ model compared to BRCA1 WT or benign BRCA1 mutant models", "setting": "[1]", "value": "increased tumor growth inhibition"}, {"measurement": "target lesion on scan", "setting": "[2]; after treatment with azenosertib", "value": "no longer visualized"}, {"measurement": "cPR (confirmed partial response)", "setting": "[2]; at least 400 mg azenosertib once a day, five days on, two off, five months, 7 prior lines", "value": "−48", "unit": "%"}, {"measurement": "Max. individual BWL", "setting": "[3]; [6]", "value": 7.6, "unit": "%"}, {"measurement": "Max. mean BWL", "setting": "[3]; [6]", "value": 0.7, "unit": "%"}, {"measurement": "tolerability (body weight data and clinical observations)", "setting": "[3]; azenosertib at 60 mg/kg, niraparib at 35 mg/kg, single agents or in combination", "value": "well tolerated"}, {"measurement": "tumor cell growth (dose response curves)", "setting": "[4]", "value": "reduces tumor cell growth"}, {"measurement": "tumor growth inhibition in HRD+ models compared to the HRD- model", "setting": "[5]", "value": "increased tumor growth inhibition"}]}
